The values below come from patent US20090030179A1, “ANTIMICROBIAL PEPTIDE AND USE THEREOF” (TOAGOSEI CO., LTD, priority 2005, published 2009).

Residues, ends and D or L forms follow the SMILES beside them.

In assay [1] the test system is Gram-positive bacteria (Staphylococcus aureus). The format is cell-based. The note with it: for Antimicrobial Activities (MIC) S. aureus: Gram-positive bacteria, 24 h. As for the experimental part:
(§1) Regarding the antimicrobial peptides (samples 1 to 12) and the peptide of comparative sample 1 related to the present invention, their antimicrobial activities (minimum inhibitory concentration: MIC) against Gram-negative bacteria (Escherichia coli) and Gram-positive bacteria (Staphylococcus aureus) were determined, as described below, by liquid medium dilution method using a 96-well microplate. […] The prepared liquid broth media containing the peptide at each concentration described above were then loaded onto 96-well microplates in 100-μL aliquots. At the same time, the tested bacteria cultured for 18 hours at 37° C. on an agar plate (“Muller Hinton Agar” manufactured by DIFCO) were collected by scraping with a loop, and then suspended in sterilized physiological saline. 5 μL of bacterial suspension prepared to be equivalent to 2×10^7 cells/mL was inoculated (number of bacteria to be tested: approximately 1×10^6 cells/mL) into each well of the above-described microplate filled with the liquid broth media containing the peptide at each concentration. After inoculation, the microplate was then incubated in an incubator at 37° C., and the presence of bacteria was evaluated based on the turbidity after 24 hours. The minimum drug concentration (polypeptide concentration), at which no increase in bacterial turbidity was detected at the time of measurement, was defined as MIC (minimum inhibitory concentration) (unit: μM) in the present embodiment.

Assay [2] relates to Gram-negative bacteria (Escherichia coli). The format is cell-based. The note with it: for Antimicrobial Activities (MIC) E. coli: Gram-negative bacteria, 24 h. As for the experimental part:
as §1

As for `CC(C)C[C@H](NC(=O)[C@H](CS)NC(=O)[C@H](CCCNC(=N)N)NC(=O)[C@H](CCC(=O)O)NC(=O)[C@H](CCCCN)NC(=O)[C@H](CC(C)C)NC(=O)[C@@H](N)[C@@H](C)O)C(=O)N[C@@H](CCC(N)=O)C(=O)N[C@H](C(=O)N[C@H](C(=O)N[C@@H](CCCNC(=N)N)C(=O)N[C@@H](CO)C(=O)N[C@@H](CC(C)C)C(=O)N[C@H](C(=O)N[C@@H](CCCCN)C(N)=O)C(C)C)C(C)C)C(C)C` [Sample 1, TLKERCLQVVRSLVK], the “Antimicrobial Activities (MIC) S. aureus” value in assay [1] came out at 3.13 µM. Besides, the “Antimicrobial Activities (MIC) E. coli” value in assay [2] turned out to be 6.25 µM.
Regarding `CC[C@H](C)[C@H](NC(=O)[C@H](Cc1c[nH]cn1)NC(=O)[C@H](CCC(N)=O)NC(=O)[C@H](CC(C)C)NC(=O)[C@@H](N)CO)C(=O)N[C@@H](CS)C(=O)N[C@@H](CCCNC(=N)N)C(=O)N[C@H](C(=O)N[C@H](C(=O)N[C@H](C(=O)N[C@@H](CS)C(=O)N[C@@H](CC(N)=O)C(=O)N[C@@H](CS)C(=O)N[C@H](C(=O)N[C@H](C(N)=O)[C@@H](C)O)[C@@H](C)O)[C@@H](C)CC)C(C)C)[C@@H](C)O` [Sample 7, SLQHICRTVICNCTT] (H-SLQHICRTVICNCTT-NH2), the “Antimicrobial Activities (MIC) S. aureus” value in assay [1] was found to be 50 µM.
Take `CC[C@H](C)[C@H](NC(=O)[C@H](Cc1ccc(O)cc1)NC(=O)[C@H](CCC(N)=O)NC(=O)[C@H](CC(C)C)NC(=O)[C@@H](N)CO)C(=O)N[C@@H](CS)C(=O)N[C@@H](CCCNC(=N)N)C(=O)N[C@@H](C)C(=O)N[C@H](C(=O)N[C@H](C(=O)N[C@@H](CS)C(=O)N[C@@H](CCCNC(=N)N)C(=O)N[C@@H](CS)C(=O)N[C@H](C(=O)N[C@H](C(N)=O)[C@@H](C)O)[C@@H](C)O)[C@@H](C)CC)C(C)C` [Sample 8, SLQYICRAVICRCTT] (H-SLQYICRAVICRCTT-NH2): in assay [1], the “Antimicrobial Activities (MIC) S. aureus” value stood at 50 µM.
As for “H-PLAHLCRLRVRKAIG-NH2 [Sample 11, PLAHLCRLRVRKAIG]”, the “Antimicrobial Activities (MIC) S. aureus” value in assay [1] was 12.5 µM.
With “H-SLKHLCRKALRSFLT-NH2 [Sample 10, SLKHLCRKALRSFLT]”, the “Antimicrobial Activities (MIC) S. aureus” value in assay [1] amounted to 12.5 µM.
Consider “H-SLQHICRMSIRRVMS-NH2 [Sample 3, SLQHICRMSIRRVMS]”, for which the “Antimicrobial Activities (MIC) S. aureus” value in assay [1] was 6.25 µM. Moreover, the “Antimicrobial Activities (MIC) E. coli” value in assay [2] was 12.5 µM.
For the compound “H-SLQHLCRFRIRQLVR-NH2 [Sample 9, SLQHLCRFRIRQLVR]”, in assay [1], the “Antimicrobial Activities (MIC) S. aureus” value worked out at 12.5 µM.
On to “H-SLQYLCRFVIRQYTR-NH2 [Sample 2, SLQYLCRFVIRQYTR]”, for which, in assay [1], the “Antimicrobial Activities (MIC) S. aureus” value was 6.25 µM. Further, the “Antimicrobial Activities (MIC) E. coli” value in assay [2] was found to be 25 µM.
Regarding “H-SLTHLCRLEIRSSIK-NH2 [Sample 12, SLTHLCRLEIRSSIK]”, in assay [1], the “Antimicrobial Activities (MIC) S. aureus” value worked out at 25 µM.
Consider “H-TLHQQCIRVLKNNID-NH2 [Comparative Sample 1, TLHQQCIRVLKNNID, reference compound]”, for which, in assay [1], the “Antimicrobial Activities (MIC) S. aureus” value is above 200 µM. In addition, the “antimicrobial activity (in words), S. aureus” value in assay [1] (summary of Table 2) was “no antimicrobial activity was detected”. Moreover, the “Antimicrobial Activities (MIC) E. coli” value in assay [2] was above 200 µM. In assay [2] (summary of Table 2), the “antimicrobial activity (in words), E. coli” value is “no antimicrobial activity was detected”.
For “H-TLKKRCLQVVRKLVK-NH2 [Sample 5, TLKKRCLQVVRKLVK]”, in assay [1], the “Antimicrobial Activities (MIC) S. aureus” value stood at 3.13 µM. In addition, the “Antimicrobial Activities (MIC) E. coli” value in assay [2] came to 3.13 µM.
With “H-TLLSLCRVAVRRALG-NH2 [Sample 4, TLLSLCRVAVRRALG]”, in assay [1], the “Antimicrobial Activities (MIC) S. aureus” value stood at 1.56 µM. For the same compound, in assay [2], the “Antimicrobial Activities (MIC) E. coli” value came to 6.25 µM.
With “H-TLQHLCRKTVNGHLD-NH2 [Sample 6, TLQHLCRKTVNGHLD]”, the “Antimicrobial Activities (MIC) S. aureus” value in assay [1] came to 50 µM.
